We go through 11 compounds from patent US4616023A, “Pharmaceutical compositions of 4-(dibenzo-[a,d]cycloalkenyl)piperazine compounds and methods” (Merck & Co., Inc., priority 1985, dated 1986).

In the first assay the test system is Rat Aorta. Briefly: inhibition of calcium induced contraction of vascular smooth muscle (rat aorta segments). The assay is classed as cell-based, male Sprague-Dawley rats. Conditions: at 10^-7 M, 1.0 mM calcium chloride induced contraction, read-out: Percent Inhibition of Rat Aorta. The procedure:
The property may be observed in a test in which segments of vascular smooth muscle obtained from male Sprague-Dawleyrats are suspended in physiological salt solution in a tissue bath instrumented for recording contractions. After the tissue has been equilibrated, washed in calcium-free physiological salt solution and then depolarized, 1.0 mM calcium chloride is re-added to induce contraction. After the contraction has reached a plateau, tissues are washed and a test compound or vehicle is added to determine the effect achieved by the above cyclic protocol on a second contraction. From measuring the initial contraction as well as the second contraction in the presence of the test compound, the extent of inhibition may be calculated. The results of these tests for representative compounds in the compositions of the present invention are seen in the following table.
A word on the inhibition: it is the relative decrease from the control value, in per cent. As to `CN1CCN(C2c3ccccc3C=Cc3ccc(Cl)cc32)CC1` (centres unmarked) [1-(3-Chloro-5H-dibenzo[a,d]cyclohepten-5-yl)-4-methylpiperazine], the inhibition at 0.1 µM worked out at 90%. The same measure, in the same setting: then `COc1ccc2c(c1)C(N1CCN(C)CC1)c1ccccc1C=C2` (centres unmarked) [1-(3-Methoxy-5H-dibenzo[a,d]cyclohepten-5-yl)-4-methylpiperazine], with 65%. The same measure, in the same setting: then `Brc1ccc2c(c1)C(N1CCN(CC=Cc3ccccc3)CC1)c1ccccc1C=C2` (centres unmarked) [1-(3-bromo-5H-dibenzo[a,d]cyclohepten-5-yl)-4-cinnamylpiperazine], with 41%; and `C1=Cc2ccccc2C(N2CCNCC2)c2ccccc21` [1-(5H-Dibenzo[a,d]cyclohepten-5-yl)piperazine], with 34%; and `CN1CCN(C2c3ccccc3C=Cc3ccccc32)CC1` [1-(5H-dibenzo[a,d]cyclohepten-5-yl)-4-methylpiperazine], with 59%. Still for that read-out and setting: the figure for `CN1CCN(C2c3ccccc3CSc3ccccc32)CC1` (centres unmarked) [1-(6,11-Dihydrodibenzo[b,e]thiepin-11-yl)-4-methylpiperazine] is 30%; for `COc1ccc2c(c1)C(N1CCN(C)CC1)c1ccccc1CC2` (centres unmarked) [1-(10,11-Dihydro-3-methoxy-5H-dibenzo[a,d]cyclohepten-5-yl)-4-methylpiperazine] it is 36%; for `CSc1ccc2c(c1)C(N1CCN(C)CC1)c1ccccc1C=C2` (centres unmarked) [1-Methyl-4-(3-methylthio-5H-dibenzo[a,d]cyclohepten-5-yl)piperazine] it is 76%. Take `CCOC(=O)N1CCN(C2c3ccccc3C=Cc3ccccc32)CC1` [Ethyl 4-(5H-Dibenzo[a,d]cyclohepten-5-yl)-1-piperazinecarboxylate]: the inhibition at 0.1 µM was determined as 37%.

Still in this assay, the particulars now being: at 10^-8 M, 1.0 mM calcium chloride induced contraction, read-out: Percent Inhibition of Rat Aorta.
With `CN1CCN(C2c3ccccc3C=Cc3ccc(Br)cc32)CC1` (centres unmarked) [1-(3-Bromo-5H-dibenzo[a,d]cyclohepten-5-yl)-4-methylpiperazine], the inhibition at 0.01 µM turned out to be 48%. Consider `C(=Cc1ccccc1)CN1CCN(C2c3ccccc3C=Cc3ccccc32)CC1` [1-cinnamyl-4-(5H-dibenzo[a,d]cyclohepten-5-yl)piperazine], for which the inhibition at 0.01 µM was 89%.
